Several values for one entry are separate records, joined by “and”; a condition that tells them apart may be missing. Equal entries are not always repeated.
Tests used:
β-lactoglobulin [1] = target: T1, β-lactoglobulin (Bos taurus, UniProt P02702); experiment: Example 4: saturation assay for folates, Se75 pteroyl-L-methylselenocysteine label, N5-methyltetrahydrofolate standards; assay type: binding; conditions: 0.5 ng label, β-lactoglobulin 100 μg
Description: (§1) Standard solutions of N^5 -methyltetrahydrofoate containing 0, 0.25, 0.5, 1, 2 and 4 ng in phosphate-albumin buffer (200 μl) were pipetted in assay tubes. Buffer was also added to `total` and `blank` tubes (400 and 300 μl respectively). To each tube was added pteroyl-L-methylselenocysteine-Se75 (0.5 ng, sp. act. ca 0.24 Ci/m.mole) in 100 μl of buffer. Immediately afterwards β-lactoglobulin (100 μg) in 100 μl of buffer was added to all tubes except the blanks. After 60 minutes incubation at room temperature, a suspension of albumin-coated charcoal in buffer (200 μl) was added at 4° C. to all tubes except the totals. The tubes were centrifuged (2000g for 10 minutes) and the supernate was counted for 300 seconds in an NE8312 beta-gamma counter.
(§2) Results are expressed in terms of [formula]
Target sequence in this assay (P02702 20-234 limits assumed): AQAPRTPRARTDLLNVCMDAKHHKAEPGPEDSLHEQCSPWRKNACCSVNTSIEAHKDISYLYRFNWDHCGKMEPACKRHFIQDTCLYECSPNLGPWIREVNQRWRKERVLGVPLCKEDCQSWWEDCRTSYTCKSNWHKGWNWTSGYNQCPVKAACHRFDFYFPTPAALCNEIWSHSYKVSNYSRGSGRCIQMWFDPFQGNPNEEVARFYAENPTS

β-lactoglobulin [2] = target: T1, β-lactoglobulin; experiment: Example 5: saturation assay, Se75 pteroyl-L-methylselenocysteine label, folic acid standards; assay type: binding; conditions: 0.5 ng label, β-lactoglobulin 100 μg
Description: as §1, §2
Target sequence in this assay (P02702 20-241): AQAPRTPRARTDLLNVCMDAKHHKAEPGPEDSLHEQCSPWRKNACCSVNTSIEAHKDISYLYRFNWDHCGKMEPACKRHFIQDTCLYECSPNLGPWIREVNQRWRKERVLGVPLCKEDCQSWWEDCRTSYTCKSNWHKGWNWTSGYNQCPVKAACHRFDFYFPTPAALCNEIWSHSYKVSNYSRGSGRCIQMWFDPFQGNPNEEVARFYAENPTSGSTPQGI
The protocol of example 4 was used except that folic acid was used as the standard instead of N^5 -methyltetrhydrofolate

[3] = system: porcine serum as binding protein; experiment: Example 8: saturation assay, Se75 pteroyl-L-methylselenocysteine label, N5-methyltetrahydrofolate standards, porcine serum binder; conditions: 0.5 ng label, porcine serum 30 μl
Description: as §1, §2
(§3) The protocol of example 4 was used except that a solution (100 μl) containing 30 μl of porcine serum and 70 μl of buffer was used instead of β-lactoglobulin as binding protein.

[4] = system: porcine serum as binding protein; experiment: Example 9: saturation assay, Se75 pteroyl-L-methylselenocysteine label, folic acid standards, porcine serum binder; conditions: 0.5 ng label, porcine serum 30 μl
Description: as §1, §2, §3
The protocol of example 8 was used except that folic acid was substituted for N^5 -methyltetrahydrofolate as standard

[5] = system: rabbit anti folic acid antiserum; experiment: Example 12: radioimmunoassay for folic acid, Se75 pteroyl-L-methylselenocysteine label; assay type: binding; conditions: 0.5 ng label, 2 μl rabbit anti folic acid antiserum
Description: (§4) Standard solutions of folic acid containing 0, 0.25, 0.5, 1, 2 and 4 ng in phosphate-albumin buffer (200 μl) were pipetted into assay tubes. Buffer was also added to `total` and `blank` tubes (400 and 300 μl respectively). To each tube was added Se75-pteroyl-L-methylselenocysteine (0.5 ng, sp. act. ca 0.24 Ci/m.mole) in 100 μl of buffer. Immediately afterwards was added, to all tubes except the blanks, 100 μl of buffer containing 2 μl of a 1/15000 titre rabbit anti folic acid antiserum, raised against a conjugate of folic acid with serum albumin.
(§5) After 60 minutes incubation at room temperature, a suspension of albumin-coated charcoal in buffer (200 μl) was added at 4° C. to all tubes except the totals. The tubes were centrifuged (2000g for 10 minutes) and the supernate was counted for 300 seconds.

β-lactoglobulin [6] = target: T1, β-lactoglobulin; experiment: Example 6: saturation assay, Se75 pteroyl-L-selenomethionine label, N5-methyltetrahydrofolate standards; assay type: binding; conditions: 0.5 ng label
Description: as §1, §2
(§6) The protocol of example 4 was used except that Se75-pteroyl-L-selenomethionine (0.5ng, sp. act. ca 2.25 Ci/m.mole) was substituted as label for Se75-pteroyl-L-methylselenocysteine.
Target sequence in this assay (P02702 20-234 limits assumed): as the sequence (P02702 20-234 limits assumed) above

[7] = system: porcine serum as binding protein; experiment: Example 7: saturation assay, Se75 pteroyl-L-selenomethionine label, N5-methyltetrahydrofolate standards, porcine serum binder; conditions: 0.5 ng label, porcine serum 30 μl
Description: as §1, §2, §6
The protocol of example 6 was used except that a solution of porcine serum (30 μl) in buffer (70 μl) was substituted for β-lactoglobulin as binding protein.

[8] = system: porcine serum as binding protein; experiment: Example 11: saturation assay, Se75 pteroyl-L-selenomethionine label, folic acid standards, porcine serum binder; conditions: 0.5 ng label, porcine serum 30 μl
Description: as §1, §2, §6
The protocol of example 6 was used except that folic acid was substituted for N^5 -methyltetrahydrofolate as standard.
The protocol of example 10 was used except that a solution containing 30 μl of porcine serum and 70 μl of buffer was substituted for β-lactoglobulin as binding protein.

[9] = system: rabbit anti folic acid antiserum; experiment: Example 13: radioimmunoassay for folic acid, Se75 pteroyl-L-selenomethionine label; assay type: binding; conditions: 0.5 ng label
Description: as §4, §5
The protocol of example 12 was used except that Se75-pteroyl-L-selenomethionine (0.5ng, sp. act. ca 2.25 Ci/m.mole) was substituted for Se-75-pteroyl-L-methylselenocysteine as label

[10] = 0.25 ng N5 methyltetrahydrofolate
[11] = 0.5 ng N5 methyltetrahydrofolate

C[75Se]C[C@H](NC(=O)c1ccc(NCc2cnc3nc(N)[nH]c(=O)c3n2)cc1)C(=O)O [pteroyl-L-methylselenocysteine-Se75, N-Pteroyl-Se-methyl-L-selenocysteine-Se75]
percentage of labelled folate bound (β-lactoglobulin [1]; 0 ng N5 methyltetrahydrofolate, 60 minutes room temperature): 94% | percentage of labelled folate bound (β-lactoglobulin [1]; [10]): 81.8% and 78.0% | percentage of labelled folate bound (β-lactoglobulin [1]; [11]): 81.4% | percentage of labelled folate bound (β-lactoglobulin [1]; 1 ng N5 methyltetrahydrofolate): 78.3% and 78.6% | percentage of labelled folate bound (β-lactoglobulin [1]; 2 ng N5 methyltetrahydrofolate): 51.3% and 58.0% | percentage of labelled folate bound (β-lactoglobulin [1]; 4 ng N5 methyltetrahydrofolate): 44.4% and 34.1% | percentage of labelled folate bound (β-lactoglobulin [2]; 0 ng folic acid): 95.5% | percentage of labelled folate bound (β-lactoglobulin [2]; 0.25 ng folic acid): 86.1% and 85.6% | percentage of labelled folate bound (β-lactoglobulin [2]; 0.5 ng folic acid): 67.7% and 82.5% | percentage of labelled folate bound (β-lactoglobulin [2]; 1 ng folic acid): 45.5% and 41.4% | percentage of labelled folate bound (β-lactoglobulin [2]; 2 ng folic acid): 28.1% and 32.6% | percentage of labelled folate bound (β-lactoglobulin [2]; 4 ng folic acid): 10.4% | Percent of labelled folate bound ([3]; 0 ng N5 methyltetrahydrofolate): 89.3% | Percent of labelled folate bound [3, 10]: 61.4% and 52.0% | Percent of labelled folate bound [3, 11]: 43.3% and 48.1% | Percent of labelled folate bound ([3]; 1 ng N5 methyltetrahydrofolate): 41.2% and 38.9% | Percent of labelled folate bound ([3]; 2 ng N5 methyltetrahydrofolate): 40.9% and 39.3% | Percent of labelled folate bound ([3]; 4 ng N5 methyltetrahydrofolate): 34.5% and 31.0% | Percent of labelled folic acid bound to porcine serum ([4]; 0 ng folic acid): 92.7% | Percent of labelled folic acid bound to porcine serum ([4]; 0.25 ng folic acid): 67.1% and 68.7% | Percent of labelled folic acid bound to porcine serum ([4]; 0.5 ng folic acid): 60.9% and 43% | Percent of labelled folic acid bound to porcine serum ([4]; 1 ng folic acid): 26.2% and 31.3% | Percent of labelled folic acid bound to porcine serum ([4]; 2 ng folic acid): 28.0% and 28.3% | Percent of labelled folic acid bound to porcine serum ([4]; 4 ng folic acid): 9% and 2.6% | Percent of labelled folate bound to antiserum ([5]; 0 ng folic acid): 97.6% | Percent of labelled folate bound to antiserum ([5]; 0.25 ng folic acid, listed as Se75-pteroyl-L-methylselenocysteine): 72.4% and 90.9% | Percent of labelled folate bound to antiserum ([5]; 0.5 ng folic acid, listed as Se75-pteroyl-L-methylselenocysteine): 52.5% and 70.3% | Percent of labelled folate bound to antiserum ([5]; 1 ng folic acid, listed as Se75-pteroyl-L-methylselenocysteine): 50.1% and 35.3% | Percent of labelled folate bound to antiserum ([5]; 2 ng folic acid, listed as Se75-pteroyl-L-methylselenocysteine): 20.1% and 29.6% | Percent of labelled folate bound to antiserum ([5]; 4 ng folic acid, listed as Se75-pteroyl-L-methylselenocysteine): 20.1% and 12.8%

C[75Se]CC[C@H](NC(=O)c1ccc(NCc2cnc3nc(N)[nH]c(=O)c3n2)cc1)C(=O)O [Se75-pteroyl-L-selenomethionine, N-Pteroyl-L-selenomethionine-Se75]
Percent of labelled folate bound (β-lactoglobulin [6]; 0 ng N5 methyltetrahydrofolate): 49.9% | Percent of labelled folate bound (β-lactoglobulin [6]; [10]): 39.3% and 36.1% | Percent of labelled folate bound (β-lactoglobulin [6]; [11]): 35.9% and 37.3% | Percent of labelled folate bound (β-lactoglobulin [6]; 1 ng N5 methyltetrahydrofolate): 32.6% and 33.0% | Percent of labelled folate bound (β-lactoglobulin [6]; 2 ng N5 methyltetrahydrofolate): 25.9% | Percent of labelled folate bound (β-lactoglobulin [6]; 4 ng N5 methyltetrahydrofolate): 25.4% and 24.1% | Percent of labelled folate bound ([7]; 0 mg N5 methyltetrahydrofolate): 36.4% | Percent of labelled folate bound ([7]; 4 ng N5 methyltetrahydrofolate): 15.5% and 15.6% | Percent of labelled folate bound ([7]; 0.25 mg N5 methyltetrahydrofolate): 21.3% | Percent of labelled folate bound ([7]; 0.5 mg N5 methyltetrahydrofolate): 17.2% and 17.1% | Percent of labelled folate bound ([7]; 1 mg N5 methyltetrahydrofolate): 20.7% and 18.5% | Percent of labelled folate bound ([7]; 2 mg N5 methyltetrahydrofolate): 19.3% and 17.2% | Percent of labelled folate bound ([8]; 0 ng folic acid): 35.7% | Percent of labelled folate bound ([8]; 0.25 ng folic acid): 20.3% and 21.1% | Percent of labelled folate bound ([8]; 0.5 ng folic acid): 18.4% and 20.9% | Percent of labelled folate bound ([8]; 1 ng folic acid): 16.8% and 17.3% | Percent of labelled folate bound ([8]; 2 ng folic acid): 13.0% and 13.9% | Percent of labelled folate bound ([8]; 4 ng folic acid): 12.6% and 15.2% | Percent of labelled folate bound ([9]; 0 ng folic acid): 42.2% | Percent of labelled folate bound ([9]; 0.25 ng folic acid): 25.7% and 27.6% | Percent of labelled folate bound ([9]; 0.5 ng folic acid): 22.1% and 19% | Percent of labelled folate bound ([9]; 1 ng folic acid): 20.8% and 21.9% | Percent of labelled folate bound ([9]; 2 ng folic acid): 16.7% and 15.5% | Percent of labelled folate bound ([9]; 4 ng folic acid): 16% and 13.7%

Source: US4115065A, “Saturation analysis of folate compound with selenium-75 labeled folate” (The Radiochemical Centre Limited, priority 1973, dated 1978)
